Where two headings read alike, the source gives them in different places.
Assays:
SMN2 mRNA = assay: RT-qPCR splicing assay, SMN2 canonical junction (CJ) mRNA; assay type: cell-based, human; conditions: Table 5 panel, canonical junction qPCR, compound concentration having 50% response in CJ decrease, read-out: SMN2 IC50 (decrease in CJ mRNA levels)
Summary of the method: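 A673 or K562 cells were treated for 24 h at 37 °C with compound in 11-point 3-fold dilution (top 10 uM final, DMSO ≤0.25%). Lysates then went to one-step RT-qPCR measuring canonical-junction mRNA, normalized to GAPDH, GUSB or PPIA.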

MYB mRNA = assay: RT-qPCR splicing assay, MYB canonical junction (CJ) and alternative junction (AJ) mRNA; assay type: cell-based, human; conditions: for AC50: increase in MYB alternative junction (AJ) mRNA, read-out: MYB AJ AC50
Summary of the method: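 A673 or K562 cells were treated for 24 h at 37 °C with an 11-point 3-fold compound dilution series (top final concentration 10 uM, DMSO ≤0.25%). After lysis, one-step TaqMan RT-qPCR quantified junction transcripts, normalized to PPIA for A673 or to GAPDH/GUSB for K562.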

[1] = Homo sapiens, Table 5 panel, canonical junction qPCR, compound concentration having 50% response in CJ decrease, read-out: MYB IC50 (decrease in CJ mRNA levels)
[2] = Homo sapiens, decrease in MYB canonical junction (CJ) mRNA, RT-qPCR, read-out: MYB CJ IC50

| Compound | IC50 (SMN2 mRNA; Homo sapiens) [µM] | IC50 (MYB mRNA; [1]) [µM] | IC50 (MYB mRNA; [2]) [µM] | AC50 (MYB mRNA; Homo sapiens, RT-qPCR) [µM] | IC50 (SMN2 mRNA) [µM] | IC50 (MYB mRNA; Table 5 panel, canonical junction qPCR, compound concentration having 50% response in CJ decrease, read-out: MYB IC50 (decrease in CJ mRNA levels)) [µM] | IC50 (MYB mRNA; decrease in MYB canonical junction (CJ) mRNA, RT-qPCR, read-out: MYB CJ IC50) [µM] | AC50 (MYB mRNA; RT-qPCR) [µM] |
| --- | --- | --- | --- | --- | --- | --- | --- | --- |
| Cc1cn2cc(-c3ccc4c(c3)CCN(C3CCNCC3)C4=O)cc(C(F)(F)F)c2n1 [Compound 252] | 0.1 to 1 | 1 to 10 | 1 to 10 | 1 to 10 |  |  |  |  |
| Cc1cn2nc(-c3ccc4c(=O)n(C5CCNC5)ncc4c3)cc(C)c2n1 (centres unmarked) [Compound 264] | 0.1 to 1 | 1 to 10 | 1 to 10 | 1 to 10 |  |  |  |  |
| Cc1cn2nc(-c3ccc4c(=O)n(C5CCNCC5)ncc4c3)nc2c(C)n1 [Compound 259] | 0.1 to 1 | 0.1 to 1 | 0.1 to 1 | 0.1 to 1 |  |  |  |  |
| Cn1cc2ccc(-c3ccc4c(=O)n(C5CCNCC5)ncc4c3)cc2n1 [Compound 263] | > 10 | > 10 | > 10 | > 10 |  |  |  |  |
| Cc1cn2cc(-c3ccc4c(=O)n(C5CCNCC5)cnc4c3)c(C)cc2n1 [Compound 244] | 0.1 to 1 | > 10 | > 10 | > 10 |  |  |  |  |
| Cc1cn2nc(-c3cc(F)c4c(=O)n(C5CCNCC5)cnc4c3)cc(C)c2n1 [Compound 243] | < 0.1 | < 0.1 | < 0.1 | < 0.1 |  |  |  |  |
| Cc1cn2cc(-c3ccc4c(=O)n(C5CCN(C)CC5)cnc4c3)c(C)cc2n1 [Compound 246] | 1 to 10 | 1 to 10 | 1 to 10 | 1 to 10 |  |  |  |  |
| Cc1cn2cc(-c3ccc4c(=O)n(C5CCNCC5)ncc4c3)cc(F)c2n1 [Compound 248] | < 0.1 | 0.1 to 1 | 0.1 to 1 | 0.1 to 1 |  |  |  |  |
| Cc1cn2cc(-c3ccc4c(=O)n(C5CCNCC5)ncc4c3)c(C)cc2n1 [Compound 254] | 1 to 10 | 1 to 10 | 1 to 10 | 1 to 10 |  |  |  |  |
| Cc1nc2c(F)cc(-c3ccc4c(=O)n(C5CCNCC5)ncc4c3)cc2o1 [Compound 250] | < 0.1 | 0.1 to 1 | 0.1 to 1 | 0.1 to 1 |  |  |  |  |
| Cc1cn2cc(-c3ccc4c(=O)n(C5CCNCC5)ncc4c3)cc(C(F)(F)F)c2n1 [Compound 262] | < 0.1 | 1 to 10 | 0.1 to 1 | 1 to 10 |  |  |  |  |
| Cc1cn2cc(-c3ccc4c(=O)n(C5CCNCC5)ncc4c3)ncc2n1 [Compound 255] | 0.1 to 1 | 1 to 10 | 1 to 10 | 1 to 10 |  |  |  |  |
| Cc1cn2cc(-c3ccc4c(=O)n(C5CCNCC5)ncc4c3)cc(Cl)c2n1 [Compound 256] | < 0.1 | 0.1 to 1 | 0.1 to 1 | 0.1 to 1 |  |  |  |  |
| Cc1nc2c(F)cc(-c3ccc4c(=O)n(C5CCNCC5)ncc4c3)cc2s1 [Compound 253] | 0.1 to 1 | 1 to 10 | 1 to 10 | 1 to 10 |  |  |  |  |
| Cc1cn2cc(-c3ccc4c(c3)CCN(C3CCNCC3)C4=O)cc(F)c2n1 [Compound 247] | < 0.1 | 0.1 to 1 | 0.1 to 1 | 0.1 to 1 |  |  |  |  |
| Cc1cc(-c2ccc3c(=O)n(C4CCNCC4)ncc3c2)cc2cn(C)nc12 [Compound 251] | < 0.1 | 0.1 to 1 | 0.1 to 1 | 0.1 to 1 |  |  |  |  |
| Cn1cc2cc(-c3ccc4c(=O)n(C5CCNCC5)ncc4c3)cc(F)c2n1 [Compound 249] | 1 to 10 | 1 to 10 | 1 to 10 | 1 to 10 |  |  |  |  |
| Cc1nc2c(F)cc(-c3ccc4c(=O)n(C5CCNCC5)cnc4c3)cc2o1 [Compound 245] | < 0.1 | 0.1 to 1 | 0.1 to 1 | 0.1 to 1 |  |  |  |  |
| Cc1cn2nc(-c3ccc4c(=O)n([C@@H]5CCNC6(CC6)C5)cnc4c3)cc(C)c2n1 [Compound 444] |  |  |  |  | < 0.1 | < 0.1 | < 0.1 | < 0.1 |
| Cc1cn2nc(-c3ccc4c(=O)n(C5CCNCC5)ncc4c3)cc2c(C)n1 [Compound 260] | 0.1 to 1 | 1 to 10 | 0.1 to 1 | 1 to 10 |  |  |  |  |
| Cc1cn2cc(-c3ccc4c(=O)n(C5CCNCC5)ncc4c3)cc(C)c2n1 [Compound 257] | < 0.1 | 0.1 to 1 | 0.1 to 1 | 0.1 to 1 |  |  |  |  |
| O=c1c2ccc(-c3cn[nH]c3)cc2cnn1C1CCNCC1 [Compound 261] | 1 to 10 | > 10 | > 10 | > 10 |  |  |  |  |
| Cc1cn2nc(-c3ccc4c(=O)n(C5CCN(C)CC5)ncc4c3)cc(C)c2n1 [Compound 265] | < 0.1 | 0.1 to 1 | < 0.1 | 0.1 to 1 |  |  |  |  |
